Compound | melting point [°C]
CC(=O)c1cccc(OCCCC(=O)O)c1 | 90 to 92
O=C(c1ccc(CCl)cc1)N1CCCC1 | 198 to 200
Cc1cccn2c(=O)cc(CCl)nc12 | 110 to 112
O=[N+]([O-])c1cc(S(=O)(=O)NCCN2CCOCC2)ccc1Cl | 119 to 121
COC(=O)c1noc(C)c1C(=O)c1ccccc1 | 90 to 92
O=C(O)CNC(=O)c1ccc(F)cc1 | 169 to 171
O=C(c1c(F)cccc1F)N1CCNCC1 | 111 to 113
Nc1ccccc1C(=O)Nc1ccc(F)cc1 | 109 to 112
Cc1nc(COc2ccc(Cl)cc2)sc1C(=O)O | 239 to 241
COc1ccc(C(=O)C(F)(F)F)cc1OC | 77 to 79
CCCc1nc2c(c(=O)[nH]1)CCN(Cc1ccccc1)C2 | 171 to 173
Cc1ccc2nc(C)c(C(=O)O)cc2c1 | 174 to 176
CCCn1c(C)nnc1CO | 59 to 61
CCC(CC)NS(=O)(=O)c1ccc(Cl)nc1 | 91 to 93
Cc1cc(C#N)ccc1N1CC2CCC1C2 (configuration not stated) | 69 to 71
CC(C)(C)OC(=O)c1cccc(C(=O)O)c1 | 147 to 149
CCc1c(C(C)=O)oc2ccccc12 | 33 to 35
Cc1noc(C)c1COc1ccc(C=O)cc1 | 107 to 109
CN(C)c1nnc(S)s1 | 178 to 180
O=C1NCCc2ccc(F)cc21 | 119 to 121
CC1CNc2ccccc2NC1=O (configuration not stated) | 203 to 205
Cc1ccccc1CNC(=O)C(C)Cl (configuration not stated) | 108 to 110
O=C(Nc1ccc(S(=O)(=O)Cl)cc1[N+](=O)[O-])C(F)(F)F | 91 to 93
COc1cc(Br)c(F)cc1S(=O)(=O)Cl | 79 to 81
O=C(O)c1cc(Cl)ccc1OC(F)F | 109 to 111

Compound | melting point [°C]
CC(=O)CC(=O)Nc1ccc(C)c(Cl)c1 | 108 to 110
O=C(O)c1ccc2nnc(C3CC3)n2c1 | 290 to 292
CC(C)Nc1ccc(Br)cn1 | 69 to 71
O=C1CSC(C(F)(F)F)O1 (configuration not stated) | 65 to 67
N#CCc1nccn1CC(F)(F)F | 106 to 108
CCOC(=O)C(C#N)C1C(=O)N(C)c2ccccc21 (configuration not stated) | 119 to 121
O=C(O)COc1ccccc1OCc1ccc(F)cc1 | 108 to 110
c1coc(-c2cc[nH]n2)c1 | 101 to 103
CC(C)(C)C(=O)NC1CCCNC1 (configuration not stated) | 99 to 101
O=C(O)CCc1cc2ccccc2[nH]c1=O | 227 to 229
Cc1ccccc1OCCC(=O)O | 92 to 94
Cn1c(Cl)nc2c1c(=O)[nH]c(=O)n2C | 299 to 301
Nc1ccc(C2CC2)nn1 | 135 to 137
O=C(CN1C(=O)CCC1=O)c1ccccc1Cl | 118 to 120
N#Cc1ccc(OCCBr)cc1 | 55 to 59
CS(=O)(=O)Nc1ccc(C(=O)O)c(O)c1 | 227 to 229
Cc1cc(C)c2c(n1)NCC(=O)N2 | 209 to 211
O=C(O)c1ccc(-n2ccnc2)nn1 | 238 to 240
Cc1cc(C(=O)O)nn1-c1cccc(Cl)c1 | 190 to 192
FC(F)(F)c1cccc2c(Cl)ncnc12 | 144 to 146
Cc1ccc(N)c2cccnc12 | 144 to 146
COC(=O)c1csc([N+](=O)[O-])c1 | 77 to 79
Nc1cnn(-c2ccc(C(F)(F)F)cc2)c1 | 159 to 161
COC(=O)c1cc(C)cc([N+](=O)[O-])c1N | 106 to 108
O=C(O)c1ccc(=O)n(-c2ccc(F)cc2)c1 | 299 to 301

Compound | melting point [°C]
NS(=O)(=O)c1ccc(NC(=O)C(=O)O)cc1 | 259 to 261
CC(C)CCNC(=O)C1CSCN1 (configuration not stated) | 162 to 164
O=C(O)C1CC(=O)N(c2ccc3c(c2)Cc2ccccc2-3)C1 (configuration not stated) | 254 to 256
O=C1CCCc2c1sc1ccccc21 | 113 to 115
O=C(O)c1cc(S(=O)(=O)Cl)cc(Br)c1Cl | 160 to 162
Cc1nc2c(s1)C(O)CCC2 (configuration not stated) | 80 to 82
O=C(O)c1ccccc1NS(=O)(=O)c1ccc2[nH]c(=O)[nH]c2c1 | 225 to 227
N#Cc1cccc(OCCCCC(=O)O)c1 | 78 to 80
Cc1cc(=O)[nH]c2c1cnn2C1CCCC1 | 259 to 261
O=C(O)c1coc(Br)c1 | 133 to 135
Cn1cccc1C(=O)N1CCNCC1 | 58 to 60
COC(=O)c1sc(N)nc1C | 171 to 174
CC(C)(C)Sc1ccc(C#N)cn1 | 69 to 71
CCn1c(N)cc(=O)[nH]c1=O | 125 to 127
Nc1cc(S(=O)(=O)N2CCOCC2)ccc1O | 199 to 201
O=c1ccnc(-c2ccccc2)[nH]1 | 204 to 206
Cc1cc2ncc(C=O)cn2n1 | 149 to 151
CC(C)CC1CCC(=O)NC1=O (configuration not stated) | 129 to 131
O=C(O)C=CSCc1ccco1 | 119 to 121
CCOC(O)=C1Nc2ccccc2C1=O | 92 to 94
O=[N+]([O-])c1cc(S(=O)(=O)Cl)c(Cl)cc1F | 41 to 43
O=C(O)c1ccc(-c2noc(-c3ccc(F)cc3)n2)cc1 | 291 to 293
CS(=O)(=O)NCc1ccccn1 | 88 to 90
CCN(CC)S(=O)(=O)c1ccc(O)c(C(=O)O)c1 | 129 to 131
CCOc1ccccc1CCC(=O)O | 70 to 72

Compound | melting point [°C]
Cc1ccc(-n2nc(C(=O)O)cc2-c2ccc(-c3ccccc3)cc2)cc1 | 205 to 207
CC(O)CNc1nc2ccccc2[nH]1 (configuration not stated) | 186 to 188
NCC(O)(c1ccccc1)C(F)(F)F (configuration not stated) | 76 to 78
O=C(O)CCNC(=O)c1cnccn1 | 55 to 57
O=C(O)c1ccc(-c2ccco2)[nH]c1=O | 299 to 301
O=C(O)C1CC(=O)N(CCc2ccccc2)C1 (configuration not stated) | 188 to 190
O=C(O)CCCc1csc2ccccc12 | 109 to 111
NC(=O)C1NCCc2ccccc21 (configuration not stated) | 180 to 182
O=S(=O)(NC1CC1)c1ccc(F)cc1 | 54 to 56
COc1cccc(CNC(=O)C(C)Cl)c1 (configuration not stated) | 89 to 91
O=C(O)CCC(=O)c1ccc2ccccc2c1 | 172 to 174
CC(Cl)c1nnnn1-c1ccccc1 (configuration not stated) | 95 to 97
Cc1sc(N)nc1-c1ccc(Cl)cc1 | 146 to 148
Nc1ccc(N2CCSCC2)cc1C(=O)O | 176 to 178
Nc1ccc(Sc2nncs2)c(Cl)c1 | 112 to 114
NNC(=O)CO | 90 to 92
OC(c1cccnc1)C(F)(F)F (configuration not stated) | 64 to 66
COc1nc(Cl)ncc1Br | 76 to 78
O=C(O)c1cc(S(=O)(=O)Cl)c(F)c(Cl)c1F | 191 to 193
O=C(O)c1ccc(F)c2ccsc12 | 230 to 232
NC(=S)Cc1ccc(F)cc1 | 109 to 111
N#Cc1cc(C(=O)O)c(N)[nH]c1=O | 250 to 252
CC(=O)c1ccc(N(C)C)cc1O | 120 to 122
O=C(O)Cc1ccc(NC(=O)c2ccccc2I)cc1 | 226 to 228
CC(C)C(C(=O)O)N1CCCS1(=O)=O (configuration not stated) | 97 to 99

Compound | melting point [°C]
O=C(O)CN1C(=O)COc2ccc(S(=O)(=O)Cl)cc21 | 159 to 161
O=C(c1cc(Br)c[nH]1)N1CCCC1 | 210 to 212
COc1cc(C(=O)O)cc(Cl)c1OC | 191 to 193
O=C(O)c1cccnc1SC(F)F | 184 to 188
CC1CCC(Nc2ccccn2)CC1 (configuration not stated) | 149 to 151
Cc1ccc(S(=O)(=O)Cl)cc1C(=O)O | 149 to 151
O=C(O)CSCc1ccc(Cl)c(Cl)c1 | 67 to 69
O=C(O)c1ccc(Oc2cccc(F)c2[N+](=O)[O-])c(Cl)c1 | 169 to 171
N#CCC(=O)Nc1ccccc1Br | 136 to 138
CCn1c(=O)n(CCC(=O)O)c2ccccc21 | 179 to 181
Cc1nnc(S)n1N | 186 to 188
Fc1ccc2c(Cl)ccnc2c1 | 71 to 73
NNc1cnccn1 | 109 to 113
Nc1ncc(Cc2cccc(Cl)c2Cl)s1 | 140 to 142
Cc1cc(Cl)c(S(=O)(=O)Cl)cc1[N+](=O)[O-] | 129 to 131
Cc1ccccc1-c1nnc(S)o1 | 188 to 190
COc1ccc(S(N)(=O)=O)c(OC)c1C(=O)O | 151 to 153
Cn1cnc(-c2ccc(C(=O)O)cc2)n1 | 274 to 276
COc1ccc2ncc(=O)[nH]c2c1 | 179 to 181
Cn1c(CO)nc2ccccc21 | 144 to 146
NC(=O)Nc1cccnc1 | 189 to 191
NC(CN1CCCC1)=NO | 142 to 144
NNC(=O)CCSc1ccc(F)cc1 | 98 to 100
O=C(O)COc1cccc(Br)c1 | 108 to 110
COc1ccc2cc(CCl)c(Cl)nc2c1 | 133 to 135

Compound | melting point [°C]
CCOc1cc(C(=O)O)ccc1OCC(=O)N1CCCCC1 | 129 to 131
Clc1ccc2cccnc2c1CBr | 119 to 121
Nc1c(F)cc(Br)cc1C(=O)O | 214 to 216
CCOc1ccc(C(=O)O)cn1 | 184 to 186
Oc1ccc2c(c1)OCCCO2 | 97 to 99
N#Cc1cc([N+](=O)[O-])ccc1O | 196 to 198
Nc1cccc(Cn2cnnc2)c1 | 139 to 141
Cc1ccc(F)cc1Nc1ncc(C(=O)O)cc1Cl | 209 to 211
Brc1cccc2cnoc12 | 79 to 81
CC(=O)c1cc(F)ccc1-n1ccnc1 | 182 to 184
Cc1ccc(O)c(C(=O)N2CCC(C(=O)O)CC2)c1 | 184 to 186
Cc1cc(O)n2ncnc2c1 | 254 to 256
Nc1cccc(N2CCCC2=O)c1 | 106 to 108
CC(=O)N1CCC(S(=O)(=O)Cl)CC1 | 95 to 97
O=C(O)CC1=NNC(=O)C1 | 195 to 197
ClCc1csc(-c2ccccn2)n1 | 85 to 87
O=C(O)CCCc1ccc2c(c1)-c1ccccc1C2 | 151 to 153
O=C(O)c1cccc(NC(=O)c2cccnc2)c1 | 304 to 306
Nc1ccc(S(=O)(=O)Nc2cccc(F)c2)cc1 | 168 to 170
CCOc1ccc(C(=O)NCC(=O)O)cc1 | 154 to 156
CN(C)S(=O)(=O)c1ccccc1C#N | 57 to 59
CNC(=O)c1ccc(NC(=O)CCl)cc1 | 206 to 208

— a melting point compilation (Tetko et al.)
